Structures can show the parent of a compound that is named as a salt. Marks after values point to notes of the source that are not given here.
Legend:
[1] = test system: mice cough induced by ammonia water; experiment: Antitussive test, cough induced by ammonia water in mice; format: in vivo, ICR mice
Procedure: • Animals: male ICR mice; • Drugs and reagents: dextromethorphan hydrobromide, ammonia water, 0.2% CMC-Na, protein BD-6; • Apparatus: Compressed nebulizer (403T type), balance (XS105DU type). • Experiment grouping: • Solvent control group; • Dextromethorphan 15 mg/kg group; • Protein BD-6, 20 mg/kg group, 50 mg/kg group.
Dextromethorphan and different doses of protein BD-6 (administration volume 10 ml/kg) were given orally in groups, and the solvent control group was given the same volume of distilled water. One hour later, mice were put into a sealed box and atomized 10% ammonia water for 10 seconds, and then observed and recorded the incubation period of cough in mice and the number of coughs in 2 minutes.
Record the time point of oral administration, the time point of atomization experiment, the incubation period of mice cough and the number of coughs within 2 minutes, respectively. The incubation period of cough refers to the number of seconds from the start of the atomization of ammonia to the occurrence of cough. The performance of coughing in mice is based on contraction of their abdominal muscles (breast contraction) and opening their mouths at the same time. Calculate the mean and standard error of each group of data, and use TTEST to compare the model group with other groups, and P<0.05 is considered as a significant difference.

[2] = test system: PLO-induced epilepsy in mice; experiment: Pilocarpine (PLO) induced convulsive epilepsy in mice; format: in vivo, ICR mice; design: mortality rate: unit not given here; conditions: Diazepam 2 mg/kg, PLO 225 mg/kg i.p.
Procedure: • Animals: male ICR mice; • Drugs: Pilocarpine HCl (PLO, pilocarpine, pilocarpine hydrochloride), Diazepam (diazepam tablets), protein BD-6. • Experiment grouping: • Model group: • Diazepam 2 mg/kg group; • Protein BD-6, 50 mg/kg group, 200 mg/kg group.
The drug was administered once in the afternoon the day before modeling, PLO-225 mg/kg (modeling agent) was injected intraperitoneally 1 hour after the test drug was administered intragastrically on the day of modeling. And positive drug can be administered once 20 minutes before modeling. Observe for 30 minutes after PLO injection.
Observation indicators: ①Seizure situation: the time of seizures from Grade II to Grade IV; ②the time to death.
(§1) Seizure grade: Refer to Racine grading standard: Grade 0: No response; Grade I: manifested as twitching of facial muscles or the corners of the mouth; Grade II: can nod; Grade III: twitching of one limb; Grade IV: rigidity or body twitching; Grade V: generalized epilepsy (generalized tonic seizures).
Count the number of Grade IV seizures and deaths in each group of mice in the experiment; Grade II, III and IV incubation period. […] Chi-square test was used for statistics of the number of cases. The mean value and standard error of the incubation period were calculated, and TTEST was used to compare the model group with other groups. P<0.05 was considered as a significant difference.

[3] = test system: PTZ-induced epilepsy in mice; experiment: Pentylenetetrazole (PTZ) induced epilepsy in mice; format: in vivo, ICR mice; conditions: Retigabine 60 mg/kg, PTZ 65 mg/kg i.p.
Procedure: • Animals: male ICR mice; • Medicines: Pentylenetetrazol (PTZ), Retigabine, Protein BD-6. • Experiment grouping: • Model group; • Retigabine 60 mg/kg group; • Protein BD-6, 50 mg/kg group, 200 mg/kg group;
The drug was administered once in the afternoon the day before modeling, On the day of modeling, PTZ-65 mg/kg (modeling agent) was injected intraperitoneal 1 hour after the test drug was administered intragastrically, and the positive drug can be administered once half an hour before modeling. Continue to observe for 15 minutes after injection of PTZ.
Observation index: ①Seizure situation: the time of seizures from Grade III to Grade VI; ②Death situation
as §1
Count the cases of seizures and deaths in each group of mice in the experiment; Grade III and IV incubation period. The incubation period of mice that have not attacked to Grade IV is recorded as the maximum of 900 seconds. Chi-square test was used for statistics of the number of cases. Calculate the mean and standard error of the incubation period. Use TTEST to compare the model group with other groups, and P<0.05 is considered as a significant difference.

[4] = test system: acetic acid writhing of ICR mice; experiment: Acetic acid writhing test in ICR mice; format: in vivo
Procedure: • Animals: male ICR mice; • Drugs and reagents: aspirin, physiological saline, glacial acetic acid, protein BD-6. • Experiment grouping: • Model group; • Aspirin 300 mg/kg group; • Protein BD-6, 50 mg/kg group, 200 mg/kg group.
One day after the experimental animals adapt to the environment, Aspirin 300 mg/kg, protein BD-6 50 mg/kg, 200 mg/kg were given orally one hour in advance, and the administration volume was 10 ml/kg; Then, 0.6% acetic acid solution was injected intraperitoneally, and the incubation period (seconds) and frequency of writhing in the animal was observed within 15 minutes.
Calculate the mean and standard error of the data in each group. Compared with the model group by TTEST, P<0.05 was considered as statistically different.

[5] = test system: yeast-induced fever model in rats; experiment: Yeast-induced fever model in SD rats; format: in vivo
Procedure: (§2) • Medicines: yeast (OXOID LP0021), aspirin (SIGMA A2093), protein BD-6; • Instruments: electronic balance (SARTORIUS BP121S type), electronic clinical thermometer (CITIZEN CT-513W type). • Experiment grouping: • Normal control group; • Model group: yeast fever model; • Positive control group: Aspirin 300 mg/kg group; • Protein BD-6, 10 mg/kg group, 50 mg/kg group.
(§3) Preparation of experimental animals: After the experimental animals adapt to the experimental environment (temperature 22° C.±2° C., relative humidity 50%±2%) for 1 day. Pre-adaptation to measure rectal temperature at 8:00 and 15:00, rats were fasted and water was taken freely 12 h before experiment, and let the animal to empty its feces before measuring the rectal temperature. Apply petroleum jelly to the electronic thermometer probe before each temperature measurement. Insert the rat rectum 2 cm (can be marked at 2 cm to ensure that the depth of each insertion is consistent), and record the body temperature after the reading is stable.
(§4) Subcutaneous injection of dry yeast to replicate rat fever model: The body temperature of the rats was measured before modeling. Qualified rats with a body temperature of 36.2-37.3° C. were selected and randomly divided into groups with 8 rats in each group. After oral administration of aspirin and different doses of protein BD-6, 20% yeast suspension (10 ml/kg) was injected subcutaneously immediately, and the normal control group was injected intraperitoneally with an equal volume of normal saline. The body temperatures of the rats were monitored after 2 hours for a total of 8 hours.
(§5) According to the body temperature measured at each time point on the day of the experiment, calculate the mean, standard deviation and standard error of the body temperature of each group of rats. The data of each group was compared with TTEST, and P<0.05 was considered as a significant difference.

[6] = test system: lipopolysaccharide (LPS) induced fever model in rats; experiment: Lipopolysaccharide (LPS) induced fever model in SD rats; format: in vivo
Procedure: as §2, with “Animals: 230-260 grams of male SD rats; • Drugs: lipopolysaccharide (LPS, SIGMAL-2880),” for “Medicines: yeast (OXOID LP0021),”, “(SIGMAA2093),” for “(SIGMA A2093),”, “lipopolysaccharide” for “yeast”
Method: the method of intraperitoneal injection of Lipopolysaccharide to replicate rat fever model.
as §3
as §4, with “Intraperitoneal” for “Subcutaneous”, “lipopolysaccharide” for “dry yeast”, “lipopolysaccharide (20 µg/kg, 2” for “20% yeast suspension (10”, “intraperitoneally” for “subcutaneously”
as §5

[7] = aspirin 300 mg/kg oral, 0.6% acetic acid i.p., within 15 minutes
[8] = aspirin 300 mg/kg oral, 20% yeast s.c., SD rats
[9] = aspirin 300 mg/kg oral, LPS 20 µg/kg i.p., SD rats

COc1ccc2c(c1)[C@]13CCCC[C@@H]1[C@H](C2)N(C)CC3 [Dextromethorphan, dextromethorphan hydrobromide, reference compound]
Incubation period (cough) ([1]; Dextromethorphan 15 mg/kg oral, 10% ammonia water 10 seconds, X±SEM): 37.3 ± 2.4 s
Number of coughs ([1]; Dextromethorphan 15 mg/kg oral, within 2 minutes, X±SEM): 30.2±2.0^∗∗
Incubation period and number of coughs vs solvent control (in words) ([1]; dextromethorphan 15 mg/kg, P<0.05): significant improvement in the incubation period and the number of coughs

CN1C(=O)CN=C(c2ccccc2)c2cc(Cl)ccc21 [Diazepam, reference compound]
Cases of deaths ([2]; 10 mice): 0
Grade IV seizure rate ([2]; 10 mice): 0** %
mortality rate ([2]; 10 mice): 0
Cases of Grade IV ([2]; 10 mice, 30 min observation): 0**
Grade II seizure incubation period ([2]; mean±SEM): 151±6^∗∗ s
Grade III seizure incubation period ([2]; mean±SEM): 275±20^∗∗ s
Grade IV seizure incubation period ([2]; mean±SEM, maximum 1800 seconds): 1800±0^∗∗ s

CCOC(=O)Nc1ccc(NCc2ccc(F)cc2)cc1N [Retigabine, reference compound]
Cases of deaths ([3]; 10 mice): 0
Grade IV seizure rate ([3]; 10 mice): 40%*
mortality rate ([3]; 10 mice): 0%
Cases of Grade IV ([3]; 10 mice, 15 min observation): 4*
Grade III seizure incubation period ([3]; mean±SEM): 104±13^∗∗ s
Grade IV seizure incubation period ([3]; mean±SEM, maximum 900 seconds): 634±109^∗∗ s

CC(=O)Oc1ccccc1C(=O)O [aspirin, reference compound]
Writhing incubation period and times of writhing vs model group (in words) ([4]; Aspirin 300 mg/kg, P<0.05): can significantly delay the incubation period of writhing and reduce the times of writhing
Frequency of writhing [4, 7]: 14.8±3.3^∗∗ times
Writhing incubation period [4, 7]: 281.6±26.0^∗∗ seconds
Body temperature 2 hours after modeling [5, 8]: 37.1±0.1 °C
Body temperature 4 hours after modeling [5, 8]: 37.0±0.1 °C
Body temperature 6 hours after modeling [5, 8]: 37.1±0.1 °C
Body temperature 8 hours after modeling [5, 8]: 37.1±0.1 °C
Effect on increase in body temperature (in words) ([5]; aspirin 300 mg/kg, 4, 6 and 8 hours after modeling, P<0.05 vs model group): can effectively inhibit the increase in body temperature of model rats
Body temperature 2 hours after modeling [6, 9]: 36.7±0.1 °C
Body temperature 4 hours after modeling [6, 9]: 36.7±0.1 °C
Body temperature 6 hours after modeling [6, 9]: 36.6±0.1 °C
Body temperature 8 hours after modeling [6, 9]: 36.6±0.1 °C
Effect on increase in body temperature (in words) ([6]; aspirin 300 mg/kg, 2, 4, 6 and 8 hours after modeling, P<0.05 vs model group): can effectively inhibit the increase in body temperature of model rats

Reference: patent US20230287068A1, “KERATIN BD-6, PREPARATION METHOD THEREFOR AND PHARMACEUTICAL COMPOSITION AND USE THEREOF” (INSTITUTE OF MATERIAL MEDICA, CHINESE ACADEMY OF MEDICAL …, priority 2019, published 2023)
